In US11697648B2, “Fused pyrimidine pyridinone compounds as JAK inhibitors” (THERAVANCE BIOPHARMA R&D IP, LLC, priority 2019, dated 2023):

Columns and labels:
Tyk2 = Tyk2 (Homo sapiens (Human), UniProt P29597); test: Biochemical Tyk2 kinase assay (LanthaScreen)
Method in brief: (§1)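 GST-JAK + GFP-STAT1 peptide, HEPES pH 7.5/MgCl2/EGTA/Brij-35 buffer; cpd preincubation 1 h RT; ATP start, 1 h RT; stop with 10 mM EDTA + 2 nM Tb-anti-pSTAT1; TR-FRET 520/495. 4-parameter IC50 → pKi (Cheng-Prusoff).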

Caco-2 cell monolayers = test: Caco-2 permeation assay; format: in vitro ADME; conditions: 5 μM, A-B direction, with Verapamil (25 μM)
Method in brief: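 Compounds tested at 5 μM in duplicate across Caco-2 monolayers, apical-to-basolateral, with 25 μM verapamil to block P-gp, at 37° C., 5% CO2. Apical and basal samples taken at 0 and 120 min, analysed by LC-MS/MS; Papp (cm/sec) calculated as dQ/(dt×Area×concentration).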

JAK1 = JAK1 (Homo sapiens (Human), UniProt P23458); test: Biochemical JAK1 kinase assay (LanthaScreen)
Method in brief: as §1

JAK2 = JAK2 (Homo sapiens (Human), UniProt O60674); test: Biochemical JAK2 kinase assay (LanthaScreen)
Method in brief: as §1

[1] = tested on: IL-2 stimulated STAT5 phosphorylation in Tall-1 human T cell line (JAK3); test: Cellular JAK3 potency assay: inhibition of IL-2 stimulated pSTAT5 in Tall-1 T cells; format: cell-based; conditions: IL-2 stimulated pSTAT5, Tall-1 T cells
Method in brief: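 Tall-1 cells, 45,000 per well, preincubated 1 hour with compound at 37 °C, then stimulated 30 minutes with IL-2 at 300 ng/ml final. pSTAT5 (Tyr694/699) in lysates quantified by AlphaLISA SureFire Ultra. pIC50 derived from inhibition curves, given as mean with SD.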

JAK3 = JAK3 (Homo sapiens (Human), UniProt P52333); test: Biochemical JAK3 kinase assay (LanthaScreen); conditions: for JAK3 (pKi)-JAK1 (pKi): selectivity JAK3 over JAK1, difference of pKi
Method in brief: as §1

Chain of JAK1 (P23458 whole entry): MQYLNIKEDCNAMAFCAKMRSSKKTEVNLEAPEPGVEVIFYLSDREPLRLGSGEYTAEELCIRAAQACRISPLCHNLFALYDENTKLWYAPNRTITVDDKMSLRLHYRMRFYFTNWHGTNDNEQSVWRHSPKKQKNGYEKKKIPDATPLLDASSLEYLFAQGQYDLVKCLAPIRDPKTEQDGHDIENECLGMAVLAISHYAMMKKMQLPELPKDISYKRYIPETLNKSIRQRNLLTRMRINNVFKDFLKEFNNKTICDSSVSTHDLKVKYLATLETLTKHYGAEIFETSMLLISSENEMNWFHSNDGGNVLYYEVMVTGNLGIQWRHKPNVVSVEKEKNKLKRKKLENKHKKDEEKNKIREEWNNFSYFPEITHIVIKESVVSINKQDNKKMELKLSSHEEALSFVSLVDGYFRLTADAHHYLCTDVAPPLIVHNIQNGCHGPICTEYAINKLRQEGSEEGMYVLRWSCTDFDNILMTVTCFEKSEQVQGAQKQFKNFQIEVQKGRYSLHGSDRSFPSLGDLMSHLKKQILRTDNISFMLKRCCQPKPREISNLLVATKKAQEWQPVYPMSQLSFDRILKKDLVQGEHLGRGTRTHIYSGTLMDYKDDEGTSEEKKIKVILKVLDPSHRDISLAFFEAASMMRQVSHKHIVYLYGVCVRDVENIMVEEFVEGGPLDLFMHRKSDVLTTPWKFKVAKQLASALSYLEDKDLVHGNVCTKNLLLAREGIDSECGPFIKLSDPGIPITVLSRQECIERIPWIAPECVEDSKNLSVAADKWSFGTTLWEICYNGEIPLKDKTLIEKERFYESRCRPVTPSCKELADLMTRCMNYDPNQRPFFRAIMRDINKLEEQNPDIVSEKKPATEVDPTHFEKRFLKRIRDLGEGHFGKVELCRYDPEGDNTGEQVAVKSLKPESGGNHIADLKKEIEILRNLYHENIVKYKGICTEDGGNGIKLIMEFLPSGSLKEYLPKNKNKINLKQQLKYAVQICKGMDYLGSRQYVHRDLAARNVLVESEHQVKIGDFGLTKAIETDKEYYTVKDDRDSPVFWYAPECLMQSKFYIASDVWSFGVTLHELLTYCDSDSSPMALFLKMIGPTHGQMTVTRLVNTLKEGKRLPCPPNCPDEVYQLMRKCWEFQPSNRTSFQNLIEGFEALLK
Chain of JAK3 (P52333 whole entry): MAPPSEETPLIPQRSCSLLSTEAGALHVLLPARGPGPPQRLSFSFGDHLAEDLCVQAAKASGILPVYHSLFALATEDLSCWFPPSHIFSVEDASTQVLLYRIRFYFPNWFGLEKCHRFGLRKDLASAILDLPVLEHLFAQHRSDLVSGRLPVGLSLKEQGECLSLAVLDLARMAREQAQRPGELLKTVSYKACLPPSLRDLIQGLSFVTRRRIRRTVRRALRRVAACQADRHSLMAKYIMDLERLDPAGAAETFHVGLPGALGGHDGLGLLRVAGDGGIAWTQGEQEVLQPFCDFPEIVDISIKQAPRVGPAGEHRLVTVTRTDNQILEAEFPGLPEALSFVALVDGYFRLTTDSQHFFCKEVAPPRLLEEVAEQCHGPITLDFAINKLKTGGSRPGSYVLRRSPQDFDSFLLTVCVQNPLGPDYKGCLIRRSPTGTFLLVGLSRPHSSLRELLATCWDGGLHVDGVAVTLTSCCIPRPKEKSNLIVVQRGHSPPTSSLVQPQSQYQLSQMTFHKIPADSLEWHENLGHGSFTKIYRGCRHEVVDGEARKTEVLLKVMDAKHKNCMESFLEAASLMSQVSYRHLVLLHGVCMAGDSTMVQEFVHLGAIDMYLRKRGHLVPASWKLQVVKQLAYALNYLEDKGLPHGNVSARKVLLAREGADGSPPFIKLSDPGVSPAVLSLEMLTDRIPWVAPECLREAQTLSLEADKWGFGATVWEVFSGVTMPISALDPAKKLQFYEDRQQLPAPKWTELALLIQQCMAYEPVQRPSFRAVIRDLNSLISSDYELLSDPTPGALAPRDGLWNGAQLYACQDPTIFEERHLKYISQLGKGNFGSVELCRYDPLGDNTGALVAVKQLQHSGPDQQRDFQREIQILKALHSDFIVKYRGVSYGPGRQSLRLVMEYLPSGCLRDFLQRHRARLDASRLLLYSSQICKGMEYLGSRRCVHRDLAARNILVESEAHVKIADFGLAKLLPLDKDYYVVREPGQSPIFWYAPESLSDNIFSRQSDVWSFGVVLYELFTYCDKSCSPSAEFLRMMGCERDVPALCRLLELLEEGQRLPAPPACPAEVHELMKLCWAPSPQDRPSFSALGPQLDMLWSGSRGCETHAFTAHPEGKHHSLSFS
Chain of Tyk2 (P29597 whole entry): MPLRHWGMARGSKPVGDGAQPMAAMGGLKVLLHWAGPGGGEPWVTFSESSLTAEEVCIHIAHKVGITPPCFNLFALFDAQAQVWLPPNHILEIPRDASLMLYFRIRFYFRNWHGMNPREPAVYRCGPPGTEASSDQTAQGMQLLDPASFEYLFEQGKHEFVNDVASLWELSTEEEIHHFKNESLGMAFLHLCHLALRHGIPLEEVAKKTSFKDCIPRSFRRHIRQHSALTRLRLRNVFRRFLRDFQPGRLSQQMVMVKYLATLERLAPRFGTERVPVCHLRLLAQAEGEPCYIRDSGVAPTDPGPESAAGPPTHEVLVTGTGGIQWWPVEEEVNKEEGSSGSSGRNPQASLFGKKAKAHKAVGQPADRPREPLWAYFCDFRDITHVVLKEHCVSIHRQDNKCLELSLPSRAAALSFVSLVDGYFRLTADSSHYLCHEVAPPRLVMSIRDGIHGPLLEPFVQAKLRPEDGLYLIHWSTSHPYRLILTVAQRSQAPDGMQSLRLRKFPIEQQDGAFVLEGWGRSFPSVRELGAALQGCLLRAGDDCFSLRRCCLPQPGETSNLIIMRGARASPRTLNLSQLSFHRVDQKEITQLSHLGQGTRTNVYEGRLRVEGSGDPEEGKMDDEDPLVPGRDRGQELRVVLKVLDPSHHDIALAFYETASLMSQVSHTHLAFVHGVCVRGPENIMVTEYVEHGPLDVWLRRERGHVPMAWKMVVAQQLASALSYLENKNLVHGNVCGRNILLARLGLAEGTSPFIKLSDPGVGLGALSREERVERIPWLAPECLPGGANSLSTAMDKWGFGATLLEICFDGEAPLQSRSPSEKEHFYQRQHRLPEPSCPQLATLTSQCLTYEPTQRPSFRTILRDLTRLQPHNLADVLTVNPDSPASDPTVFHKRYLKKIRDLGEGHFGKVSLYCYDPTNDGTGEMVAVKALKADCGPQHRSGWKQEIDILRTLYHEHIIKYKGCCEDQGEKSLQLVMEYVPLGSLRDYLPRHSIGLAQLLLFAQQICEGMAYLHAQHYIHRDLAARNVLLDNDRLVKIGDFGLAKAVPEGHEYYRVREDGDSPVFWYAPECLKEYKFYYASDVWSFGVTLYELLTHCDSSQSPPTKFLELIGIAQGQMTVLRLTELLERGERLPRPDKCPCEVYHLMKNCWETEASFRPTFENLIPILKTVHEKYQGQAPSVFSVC
Chain of JAK2 (O60674 whole entry): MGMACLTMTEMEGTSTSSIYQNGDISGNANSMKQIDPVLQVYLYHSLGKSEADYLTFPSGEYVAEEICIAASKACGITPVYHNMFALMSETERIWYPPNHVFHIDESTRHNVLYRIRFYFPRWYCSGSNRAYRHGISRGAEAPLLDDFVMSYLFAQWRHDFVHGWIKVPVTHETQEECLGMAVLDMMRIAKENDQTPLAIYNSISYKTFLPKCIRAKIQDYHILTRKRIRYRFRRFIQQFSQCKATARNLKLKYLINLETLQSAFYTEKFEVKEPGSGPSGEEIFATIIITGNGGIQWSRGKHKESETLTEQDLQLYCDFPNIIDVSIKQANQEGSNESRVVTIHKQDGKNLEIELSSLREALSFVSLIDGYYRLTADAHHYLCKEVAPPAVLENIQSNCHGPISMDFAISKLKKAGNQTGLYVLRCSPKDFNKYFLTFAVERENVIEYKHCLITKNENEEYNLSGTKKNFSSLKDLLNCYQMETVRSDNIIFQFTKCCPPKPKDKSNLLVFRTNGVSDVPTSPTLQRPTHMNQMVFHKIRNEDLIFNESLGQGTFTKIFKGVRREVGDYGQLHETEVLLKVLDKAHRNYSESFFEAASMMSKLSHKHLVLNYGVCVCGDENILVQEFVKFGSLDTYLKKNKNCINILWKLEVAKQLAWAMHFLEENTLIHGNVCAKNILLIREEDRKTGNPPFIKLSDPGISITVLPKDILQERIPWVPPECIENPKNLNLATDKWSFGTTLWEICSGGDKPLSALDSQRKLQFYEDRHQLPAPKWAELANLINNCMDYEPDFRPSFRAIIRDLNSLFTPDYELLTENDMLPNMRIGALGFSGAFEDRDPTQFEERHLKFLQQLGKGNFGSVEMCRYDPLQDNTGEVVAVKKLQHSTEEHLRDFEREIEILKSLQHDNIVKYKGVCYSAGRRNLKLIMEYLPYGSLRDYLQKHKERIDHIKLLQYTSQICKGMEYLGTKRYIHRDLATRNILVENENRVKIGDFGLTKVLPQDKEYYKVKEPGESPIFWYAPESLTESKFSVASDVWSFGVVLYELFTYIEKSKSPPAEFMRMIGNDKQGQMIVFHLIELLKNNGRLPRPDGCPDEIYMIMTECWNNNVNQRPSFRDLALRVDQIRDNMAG

Row | SMILES | Tyk 2 (pKi) (Tyk2) | Caco Kp (Caco-2 cell monolayers) | JAK 1 (pKi) (JAK1) | JAK 2 (pKi) (JAK2) | Tall-1 (pIC50) [1] | JAK 3 (pKi) (JAK3) | JAK3 (pKi)-JAK1 (pKi) (JAK3)
1 | C=CC(=O)N1CC(CCn2c(=O)ccc3cnc(Nc4ccc(N5CCN(C(=O)CS(C)(=O)=O)CC5)cc4)nc32)C1 [Example 151] | E (E represents a pKi value of 7 or below (Ki of 100 nM or above)) | A (A represents a value below 5×10^−6 cm/sec) | E (E represents a pKi value of 7 or below (Ki of 100 nM or above)) | E (E represents a pKi value of 7 or below (Ki of 100 nM or above)) | C (C represents a pIC50 value between 6 and 6.7 (IC50 between 1 μM and 200 nM)) | B (B represents pKi value between 9 and 10 (Ki between 1 nM and 0.1 nM)) | A (A represents a value of 3 or above)
2 | C=CC(=O)N1CC(CCn2c(=O)ccc3cnc(Nc4ccc(N5CCC(F)(F)CC5)cc4)nc32)C1 [Example 157] | E (E represents a pKi value of 7 or below (Ki of 100 nM or above)) | C (C represents a value between 10×10^−6 and 30×10^−6 cm/sec) | E (E represents a pKi value of 7 or below (Ki of 100 nM or above)) | E (E represents a pKi value of 7 or below (Ki of 100 nM or above)) | B (B represents a pC50 value between 6.7 (included) and 7.5 (IC50 between 200 nM and 32 nM)) | A (A represents a pKi value≥10 (Ki≤0.1 nM)) | A (A represents a value of 3 or above)
3 | C=CC(=O)N1CC(CCn2c(=O)ccc3cnc(Nc4ccc(N5CCN(C)[C@H](C)C5)cc4)nc32)C1 [Example 162] | E (E represents a pKi value of 7 or below (Ki of 100 nM or above)) | C (C represents a value between 10×10^−6 and 30×10^−6 cm/sec) | E (E represents a pKi value of 7 or below (Ki of 100 nM or above)) | E (E represents a pKi value of 7 or below (Ki of 100 nM or above)) | A (A represents a pIC50 value≥7.5 (IC50≤32 nM)) | A (A represents a pKi value≥10 (Ki≤0.1 nM)) | A (A represents a value of 3 or above)
4 | C=CC(=O)N1CC(CCn2c(=O)ccc3cnc(Nc4ccc(N5CCN(C(C)=O)[C@@H](C)C5)cc4)nc32)C1 [Example 167] | E (E represents a pKi value of 7 or below (Ki of 100 nM or above)) | A (A represents a value below 5×10^−6 cm/sec) | E (E represents a pKi value of 7 or below (Ki of 100 nM or above)) | E (E represents a pKi value of 7 or below (Ki of 100 nM or above)) | B (B represents a pC50 value between 6.7 (included) and 7.5 (IC50 between 200 nM and 32 nM)) | A (A represents a pKi value≥10 (Ki≤0.1 nM)) | A (A represents a value of 3 or above)
5 | C=CC(=O)N1CCN(CCn2c(=O)ccc3cnc(Nc4ccc(N5CCN(S(=O)(=O)CCOC)CC5)cc4)nc32)[C@@H](C)C1 [Example 170] | E (E represents a pKi value of 7 or below (Ki of 100 nM or above)) | B (B represents a value between 5×10^−6 and 10×10^−6 cm/sec) | E (E represents a pKi value of 7 or below (Ki of 100 nM or above)) | E (E represents a pKi value of 7 or below (Ki of 100 nM or above)) | A (A represents a pIC50 value≥7.5 (IC50≤32 nM)) | A (A represents a pKi value≥10 (Ki≤0.1 nM)) | A (A represents a value of 3 or above)
6 | C=CC(=O)N1CCN(CCn2c(=O)ccc3cnc(Nc4ccc(N5CCN(C(=O)OC)CC5)cc4)nc32)[C@@H](C)C1 [Example 172] | E (E represents a pKi value of 7 or below (Ki of 100 nM or above)) | C (C represents a value between 10×10^−6 and 30×10^−6 cm/sec) | E (E represents a pKi value of 7 or below (Ki of 100 nM or above)) | E (E represents a pKi value of 7 or below (Ki of 100 nM or above)) | A (A represents a pIC50 value≥7.5 (IC50≤32 nM)) | B (B represents pKi value between 9 and 10 (Ki between 1 nM and 0.1 nM)) | A (A represents a value of 3 or above)
7 | C=CC(=O)N1CC(CCn2c(=O)ccc3cnc(Nc4ccc(N5C[C@@H](C)N(C(C)=O)[C@@H](C)C5)cc4)nc32)C1 [Example 178] | E (E represents a pKi value of 7 or below (Ki of 100 nM or above)) | C (C represents a value between 10×10^−6 and 30×10^−6 cm/sec) | E (E represents a pKi value of 7 or below (Ki of 100 nM or above)) | E (E represents a pKi value of 7 or below (Ki of 100 nM or above)) | B (B represents a pC50 value between 6.7 (included) and 7.5 (IC50 between 200 nM and 32 nM)) | A (A represents a pKi value≥10 (Ki≤0.1 nM)) | A (A represents a value of 3 or above)
8 | C=CC(=O)N1CC(CCn2c(=O)ccc3cnc(Nc4ccc(N5CCN(C(C)=O)C(C)(C)C5)cc4)nc32)C1 [Example 179] | E (E represents a pKi value of 7 or below (Ki of 100 nM or above)) | C (C represents a value between 10×10^−6 and 30×10^−6 cm/sec) | E (E represents a pKi value of 7 or below (Ki of 100 nM or above)) | E (E represents a pKi value of 7 or below (Ki of 100 nM or above)) | B (B represents a pC50 value between 6.7 (included) and 7.5 (IC50 between 200 nM and 32 nM)) | A (A represents a pKi value≥10 (Ki≤0.1 nM)) | A (A represents a value of 3 or above)
9 | C=CC(=O)N1CC(CC)(CCn2c(=O)ccc3cnc(Nc4ccc(N5CCN(C(C)=O)CC5)cc4)nc32)C1 [Example 180] | E (E represents a pKi value of 7 or below (Ki of 100 nM or above)) | A (A represents a value below 5×10^−6 cm/sec) | E (E represents a pKi value of 7 or below (Ki of 100 nM or above)) | E (E represents a pKi value of 7 or below (Ki of 100 nM or above)) | B (B represents a pC50 value between 6.7 (included) and 7.5 (IC50 between 200 nM and 32 nM)) | B (B represents pKi value between 9 and 10 (Ki between 1 nM and 0.1 nM)) | A (A represents a value of 3 or above)
10 | C=CC(=O)N1CCN(CCn2c(=O)ccc3cnc(Nc4ccc(N5CCN(C(C)=O)CC5)cc4)nc32)[C@@H](CC)C1 [Example 185] | E (E represents a pKi value of 7 or below (Ki of 100 nM or above)) | B (B represents a value between 5×10^−6 and 10×10^−6 cm/sec) | E (E represents a pKi value of 7 or below (Ki of 100 nM or above)) | E (E represents a pKi value of 7 or below (Ki of 100 nM or above)) | B (B represents a pC50 value between 6.7 (included) and 7.5 (IC50 between 200 nM and 32 nM)) | A (A represents a pKi value≥10 (Ki≤0.1 nM)) | A (A represents a value of 3 or above)
11 | C=CC(=O)N1CCN(CCn2c(=O)ccc3cnc(Nc4ccc(N5CCN(C(=O)COC)CC5)cc4)nc32)[C@@H](CC)C1 [Example 186] | E (E represents a pKi value of 7 or below (Ki of 100 nM or above)) | A (A represents a value below 5×10^−6 cm/sec) | E (E represents a pKi value of 7 or below (Ki of 100 nM or above)) | E (E represents a pKi value of 7 or below (Ki of 100 nM or above)) | B (B represents a pC50 value between 6.7 (included) and 7.5 (IC50 between 200 nM and 32 nM)) | B (B represents pKi value between 9 and 10 (Ki between 1 nM and 0.1 nM)) | A (A represents a value of 3 or above)
12 | C=CC(=O)N1CCN(CCn2c(=O)ccc3cnc(Nc4ccc(N5CCN(C(=O)N(C)C)CC5)cc4)nc32)[C@@H](CC)C1 [Example 187] | E (E represents a pKi value of 7 or below (Ki of 100 nM or above)) | C (C represents a value between 10×10^−6 and 30×10^−6 cm/sec) | E (E represents a pKi value of 7 or below (Ki of 100 nM or above)) | E (E represents a pKi value of 7 or below (Ki of 100 nM or above)) | B (B represents a pC50 value between 6.7 (included) and 7.5 (IC50 between 200 nM and 32 nM)) | B (B represents pKi value between 9 and 10 (Ki between 1 nM and 0.1 nM)) | A (A represents a value of 3 or above)
13 | C=CC(=O)N1CCN(CCn2c(=O)ccc3cnc(Nc4ccc(N5CCN(C(=O)CSC)CC5)cc4)nc32)[C@@H](CC)C1 [Example 188] | E (E represents a pKi value of 7 or below (Ki of 100 nM or above)) | C (C represents a value between 10×10^−6 and 30×10^−6 cm/sec) | E (E represents a pKi value of 7 or below (Ki of 100 nM or above)) | E (E represents a pKi value of 7 or below (Ki of 100 nM or above)) | B (B represents a pC50 value between 6.7 (included) and 7.5 (IC50 between 200 nM and 32 nM)) | B (B represents pKi value between 9 and 10 (Ki between 1 nM and 0.1 nM)) | A (A represents a value of 3 or above)
